Tested on: C. albicans
Assay: Heparin-binding ELISA assay: C. albicans binding to solid-phase heparin, desulfated heparin analogs, chondroitin sulfate or dermatan sulfate
Type: cell-based, Candida albicans
Conditions: equimolar amounts with respect to heparin
Method: To measure the binding of C. albicans to solid-phase heparin, a heparin-binding ELISA assay was developed, as follows. A single colony of each C. albicans wild type or mutant strain from a YPD plate was inoculated into 3 ml YPD medium and incubated overnight at 30° C. with shaking at 225 rpm. Sigma heparin (fresh solution made daily), diluted to 25 units/ml in autoclaved, sterile-filtered PBS was added as 0.1 ml aliquots to each well of an allyl amine-coated 96-well heparin binding microtiter plate (BD Biosciences). The plate was incubated at room temperature overnight in the dark (50). In the morning, the plate was washed with acetate buffer (100 mM NaCl, […], 0.2% Tween 20, pH 7.2), incubated with 3% bovine serum albumin (BSA) in PBS at 30° C. for 1 hour, then washed with PBS. In the meantime, overnight cultures of C. albicans were subcultured by dilution to OD600 of 0.2 in 25 ml of YPD, and grown at 30° C. to mid-log phase (OD600 0.6-0.7). […] After 45 minutes, absorbance at 595 nm was read on a Beckman Coulter DTX 880. […]
The ELISA assay used a commercially available 96-well microtiter plate coated with polymerized allylamine (BD Biosciences) (27), in which wells were inoculated with 2.5 units (12.5 μg) heparin in 100 μl phosphate buffered saline (PBS) per well. […] The color change was read spectrophotometrically at absorbance of 595 nm.

Substance	binding of C. albicans versus binding to heparin, in words
chondroitin sulfate	equivalent
dermatan sulfate	reduced

— US9409975B2, “Antibody binding microbial heparin binding motif to retard or prevent microbial biofilm formation on implanted medical devices” (priority 2012, dated 2016)
